According to US20120021061A1, “MEDICAL AND NUTRITIONAL FORMULATIONS” (Comvita New Zealand Limited, priority 2008, published 2012):
Where two headings read alike, the source gives them in different places.

Tests used:
[1] = test system: H. pylori SS1; test: Viability of H. pylori SS1 after overnight incubation with MGO or honey (drop plate CFU); format: cell-based, Helicobacter pylori; settings: for Helicobacter pylori viable count: catalase treated
Method: The H. pylori SS1 strain was obtained and initially cultured on Campylobacter Selective Agar (CSA) plates and incubated at 37° C. under microaerobic conditions (10% Co2) for 48 h. Following culture, the isolates were checked for purity (microscopy, catalase and oxidase), after which SS1 was cultured in Brucella broth supplemented with 5% Fetal Bovine Serum and 1% Vitox under microaerobic conditions with shaking for 24 h. The effect of 1) methylglyoxal (MGO), density 1.17 g/ml, 2) Honey M1: Manuka honey O50336-10 (MGO content=0.593 mg/g), 3) Honey M2=Honey M1 adjusted to a pH of 9.0, 4) Honey M3=Comvita Wound Care Honey 18+ (MGO content=0.6 mg/g) and 5) Honey C: Control honey (100% Australian Honey, Leabrook Farms, Australia) on H. pylori was determined. MGO at concentrations of 1, 5, 10, 20, 50 and 100 mg/L were prepared by dissolving an appropriate amount of MGO in Brucella broth. To ensure an equivalent concentration of MGO in the Manuka honeys, the appropriate weight of honey (Honey M1 and Honey M2=6.75 g), (Honey M3=6.67 g) was measured out, after which an equal volume of Brucella broth at 37° C. was added to the honey and this was vortexed to aid mixing. Following vortexing, an equal volume of catalase solution (2 mg/ml) prepared from bovine liver was added to negate the effect of hydrogen peroxide, and this was again vortexed to aid mixing. The total volume was then adjusted to 40 ml using Brucella broth. […] The control Honey C was prepared in a similar fashion starting with an initial weight=6.71 g). To avoid contamination with lactic acid bacteria that are commonly present in honey (e.g. Leuconostoc citreum and Lactococcus garvieae), preparations of honey M1 and Honey C were filter sterilized through 0.22 µm pore size membrane filters prior to use in the in vitro assay. The Comvita wound care 18+ honey was not filter sterilised as this product undergoes sterilisation on manufacture. […] H. pylori were grown in broth culture overnight as described above. Following incubation, cells were washed once and resuspended in Brucella broth to an Optical Density (OD) 600 1.5. Ten pl of the microbial suspension was then inoculated into wells of a 96-well microtiter plate containing 200 pl of broth, supplemented with a range of concentrations of MGO (0, 1, 5, 10, 20, 50 and 100 mg/L), or an equivalent concentration of MGO contained in the Manuka honeys, or the same percentage of control honey. Each of the concentrations of MGO, MGO in the Manuka honeys and the control honey were tested in triplicate. Following addition of H. pylori to the microtiter plates, these were incubated under microaerobic conditions (10% CO2) overnight. Following incubation the number of viable colonies in the wells was assessed using the drop plate method. Following incubation the number of visible colonies on CSA agar plates were counted and the colony forming units (CFU)/ml calculated.

[2] = test system: IL-1β; test: Cytokine production by peripheral blood mononuclear cells, IL-1β; format: cell-based; settings: human PBMC supernatants; FIG. 9
Method: (§1) An experiment was completed using three honey samples, the first being a high UMF manuka honey containing 1002 mg of MGO/kg, a moderate UMF manuka honey containing 649 mg of MGO/kg, a clover honey containing minimal MGO/kg and pure MGO alone. Results were compared against a negative control with cells alone […] and PHA as the inflammatory agent. Human blood was collected from six donors and peripheral blood mononuclear cells were separated by Ficoll gradients. Donor bloods were processed in pairs. The experiments tested the effect of the honey on the blood cells and the levels of cytokines produced. Supernatents from cells incubated with varying honey and MGO concentrations were collected and assayed for a number of pro and anti-inflammatory cytokines. Cytokines are molecules secreted by cells that are involved in communication between cells. Cytokines bind to specific receptors on cell surfaces and the signals then created can alter cellular functions. The cytokines tested in this study were IL-1β, IL-10 and […]. Cytokines were measured using a biorad, bioplex suspension array system.

[3] = test system: TNFα; test: Cytokine production by peripheral blood mononuclear cells, TNFα; format: cell-based; settings: human PBMC supernatants; FIG. 11
Method: as §1

[4] = test system: Helicobacter pylori; test: Helicobacter pylori infected mice fed honey; format: in vivo; settings: honey 2.8 g/kg body weight, MGO given in sugar solution
Source text: An experiment was completed feeding manuka honey with a UMF 22 to Helicobacter pylori infected mice at a rate of 2.8 g/kg body weight honey.

[5] = test system: neutrophils; test: Neutrophil superoxide production with honeys of increasing MGO; format: cell-based; settings: increasing MGO concentrations in honey
Source text: The inventors conducted an experiment to determine whether increasing MGO concentrations also increase the ability of honey with the MGO to prevent or slow neutrophils from making superoxides (a part of the inflammatory response).

[6] = test system: IL-10; test: Cytokine production by peripheral blood mononuclear cells, IL-10; format: cell-based; settings: human PBMC supernatants; FIG. 10
Method: as §1

[7] = test system: E. coli O157/Nissle; format: cell-based; settings: no honey

CC(=O)C=O [MGO (pH 9), methylglyoxal]
Helicobacter pylori viable count ([1]; MGO conc 50 mg/L, honey conc 8.4%, listed as MGO at pH 9): 6.9×10^6 CFU/ml | Helicobacter pylori viable count ([1]; MGO conc 100 mg/L, honey conc 16.7%, listed as MGO at pH 9): 1.7×10^6 CFU/ml

CC(=O)C=O [MGO, methylglyoxal]
IL-1β production [2]: no effect | MGO concentration at which CFU of H. pylori SS1 were reduced ([1]; MGO alone or equivalent MGO in honey): ≥ 20 mg/L | Helicobacter pylori viable count ([1]; MGO conc 20 mg/L, honey conc 4.2%): 7.1×10^6 CFU/ml | Helicobacter pylori viable count ([1]; MGO conc 50 mg/L, honey conc 8.4%): 7.0×10^5 CFU/ml | Helicobacter pylori viable count ([1]; MGO conc 100 mg/L, honey conc 16.7%): 1.1×10^4 CFU/ml | TNFα production [3]: no effect | H. pylori bacteria numbers in infected mice [4]: does not reduce bacteria numbers alone | Ability to prevent or slow neutrophils from making superoxides [5]: made no difference at all | IL-10 values [6]: not affected

OO [Peroxide, hydrogen peroxide]
Mean inhibition zone (n = 3) ([7]; peroxide 36.7 mM + catalase 1000 U/mL): 0.0 mm | Mean inhibition zone (n = 3) ([7]; peroxide 36.7 mM alone): 3.3 mm

Catalase
Mean inhibition zone (n = 3) ([7]; catalase 1000 U/mL alone): 0.0 mm
